ChEMBL document CHEMBL3044724, “Differential efficacy of three commonly used pyrethroids against laboratory and field-collected larvae and adults of Helicoverpa zea (Lepidoptera: Noctuidae) and significance for pyrethroid resistance management” (2010)

What was measured:
Type in all cases: functional
Helicoverpa zea [1] = assay: Resistant ratio, ratio of LC90 for F1 generation of adult of Helicoverpa zea (corn earworm) to LC90 for adult of corn earworm
Helicoverpa zea [2] = assay: Resistant ratio, ratio of LC90 for F1 generation of third-instar of Helicoverpa zea (corn earworm) to LC90 for third-instar of corn earworm
Helicoverpa zea [3] = assay: Resistant ratio, ratio of LC50 for F1 generation of adult of Helicoverpa zea (corn earworm) to LC50 for adult of corn earworm
Helicoverpa zea [4] = assay: Resistant ratio, ratio of LC50 for F1 generation of third-instar of Helicoverpa zea (corn earworm) to LC50 for third-instar of corn earworm
Helicoverpa zea [5] = assay: Insecticidal activity against F1 generation of adult of Helicoverpa zea (corn earworm) assessed as mortality per insecticide vial after 24 hr
Helicoverpa zea [6] = assay: Insecticidal activity against F1 generation of third-instar of Helicoverpa zea (corn earworm) assessed as mortality per insecticide vial after 48 hr
Helicoverpa zea [7] = assay: Insecticidal activity against adult of Helicoverpa zea (corn earworm) assessed as mortality per insecticide vial after 24 hr
Helicoverpa zea [8] = assay: Insecticidal activity against third-instar of Helicoverpa zea (corn earworm) assessed as mortality per insecticide vial after 48 hr

| Structure (SMILES) | Ratio (Helicoverpa zea [1]) | Ratio (Helicoverpa zea [2]) | RatioLC50 (Helicoverpa zea [3]) | RatioLC50 (Helicoverpa zea [4]) | LC50 (Helicoverpa zea [5]) | LC90 (Helicoverpa zea [5]) | LC50 (Helicoverpa zea [6]) | LC90 (Helicoverpa zea [6]) | LC50 (Helicoverpa zea [7]) | LC90 (Helicoverpa zea [7]) | LC50 (Helicoverpa zea [8]) | LC90 (Helicoverpa zea [8]) |
| --- | --- | --- | --- | --- | --- | --- | --- | --- | --- | --- | --- | --- |
| Cc1c(COC(=O)[C@@H]2[C@H](/C=C(\Cl)C(F)(F)F)C2(C)C)cccc1-c1ccccc1 [BIFENTHRIN] | 5.9 | 15.22 | 9.28 | 9.41 | 1.54 µg | 3.01 µg | 1.25 µg | 5.8 µg | 0.17 µg | 0.51 µg | 0.13 µg | 0.38 µg |
| CC1(C)C(C=C(Cl)Cl)C1C(=O)OC(C#N)c1cccc(Oc2ccccc2)c1 (stereo not drawn) [ALPHA-CYPERMETHRIN] | 3.82 | 6.28 | 4.16 | 4.68 | 2.89 µg | 7.12 µg | 1.71 µg | 7.68 µg | 0.7 µg | 1.86 µg | 0.37 µg | 1.22 µg |
| CC(C)[C@H](C(=O)O[C@H](C#N)c1cccc(Oc2ccccc2)c1)c1ccc(Cl)cc1 | 4.37 | 3.17 | 4.67 | 3.75 | 2.3 µg | 5.9 µg | 1.51 µg | 4.59 µg | 0.49 µg | 1.35 µg | 0.4 µg | 1.45 µg |
